What was measured:
A549 [1] = assay: Cytotoxicity against human A549 cells at 50 uM after 48 hrs by SRB assay; format: functional; conditions: A549, 48 h, read-out: GI
HEp-2 [2] = assay: Cytotoxicity against human Hep2 cells at 30 uM after 48 hrs by SRB assay; format: functional; conditions: HEp-2, 48 h, read-out: GI
SF-295 [3] = assay: Cytotoxicity against human SF295 cells at 50 uM after 48 hrs by SRB assay; format: functional; conditions: SF-295, 48 h, read-out: GI
MCF7 [4] = assay: Cytotoxicity against human MCF7 cells after 48 hrs by SRB assay; format: functional, cell-based; conditions: MCF7, 48 h
THP-1 [5] = assay: Cytotoxicity against human THP1 cells at 50 uM after 48 hrs by SRB assay; format: functional; conditions: THP-1, 48 h, read-out: GI
THP-1 [6] = assay: Cytotoxicity against human THP1 cells at 30 uM after 48 hrs by SRB assay; format: functional; conditions: THP-1, 48 h, read-out: GI
HL-60 [7] = assay: Cytotoxicity against human HL60 cells at 50 uM after 48 hrs by SRB assay; format: functional; conditions: HL-60, 48 h, read-out: GI
DU-145 [8] = assay: Cytotoxicity against human DU145 cells at 50 uM after 48 hrs by SRB assay; format: functional; conditions: DU-145, 48 h, read-out: GI
HL-60 [9] = assay: Cytotoxicity against human HL60 cells at 30 uM after 48 hrs by SRB assay; format: functional; conditions: HL-60, 48 h, read-out: GI
A549 [10] = assay: Cytotoxicity against human A549 cells at 30 uM after 48 hrs by SRB assay; format: functional; conditions: A549, 48 h, read-out: GI
THP-1 [11] = assay: Cytotoxicity against human THP1 cells after 48 hrs by SRB assay; format: functional, cell-based; conditions: THP-1, 48 h
HCT-15 [12] = assay: Cytotoxicity against human HCT15 cells at 30 uM after 48 hrs by SRB assay; format: functional; conditions: HCT-15, 48 h, read-out: GI
HEp-2 [13] = assay: Cytotoxicity against human Hep2 cells at 50 uM after 48 hrs by SRB assay; format: functional; conditions: HEp-2, 48 h, read-out: GI
HCT-15 [14] = assay: Cytotoxicity against human HCT15 cells after 48 hrs by SRB assay; format: functional, cell-based; conditions: HCT-15, 48 h
MCF7 [15] = assay: Cytotoxicity against human MCF7 cells at 30 uM after 48 hrs by SRB assay; format: functional; conditions: MCF7, 48 h, read-out: GI
A549 [16] = assay: Cytotoxicity against human A549 cells at 10 uM after 48 hrs by SRB assay; format: functional; conditions: A549, 48 h, read-out: GI
HL-60 [17] = assay: Cytotoxicity against human HL60 cells at 10 uM after 48 hrs by SRB assay; format: functional; conditions: HL-60, 48 h, read-out: GI
DU-145 [18] = assay: Cytotoxicity against human DU145 cells at 10 uM after 48 hrs by SRB assay; format: functional; conditions: DU-145, 48 h, read-out: GI
PC-3 [19] = assay: Cytotoxicity against human PC3 cells at 10 uM after 48 hrs by SRB assay; format: functional; conditions: PC-3, 48 h, read-out: GI
SF-295 [20] = assay: Cytotoxicity against human SF295 cells at 10 uM after 48 hrs by SRB assay; format: functional; conditions: SF-295, 48 h, read-out: GI
MCF7 [21] = assay: Cytotoxicity against human MCF7 cells at 50 uM after 48 hrs by SRB assay; format: functional; conditions: MCF7, 48 h, read-out: GI
HCT-15 [22] = assay: Cytotoxicity against human HCT15 cells at 50 uM after 48 hrs by SRB assay; format: functional; conditions: HCT-15, 48 h, read-out: GI
A549 [23] = assay: Cytotoxicity against human A549 cells after 48 hrs by SRB assay; format: functional, cell-based; conditions: A549, 48 h
HCT-15 [24] = assay: Cytotoxicity against human HCT15 cells at 10 uM after 48 hrs by SRB assay; format: functional; conditions: HCT-15, 48 h, read-out: GI
HEp-2 [25] = assay: Cytotoxicity against human Hep2 cells at 10 uM after 48 hrs by SRB assay; format: functional; conditions: HEp-2, 48 h, read-out: GI
PC-3 [26] = assay: Cytotoxicity against human PC3 cells after 48 hrs by SRB assay; format: functional, cell-based; conditions: PC-3, 48 h
HL-60 [27] = assay: Cytotoxicity against human HL60 cells after 48 hrs by SRB assay; format: functional, cell-based; conditions: HL-60, 48 h
THP-1 [28] = assay: Cytotoxicity against human THP1 cells at 10 uM after 48 hrs by SRB assay; format: functional; conditions: THP-1, 48 h, read-out: GI
SF-295 [29] = assay: Cytotoxicity against human SF295 cells at 30 uM after 48 hrs by SRB assay; format: functional; conditions: SF-295, 48 h, read-out: GI
PC-3 [30] = assay: Cytotoxicity against human PC3 cells at 50 uM after 48 hrs by SRB assay; format: functional; conditions: PC-3, 48 h, read-out: GI
MCF7 [31] = assay: Cytotoxicity against human MCF7 cells at 10 uM after 48 hrs by SRB assay; format: functional; conditions: MCF7, 48 h, read-out: GI
DU-145 [32] = assay: Cytotoxicity against human DU145 cells at 30 uM after 48 hrs by SRB assay; format: functional; conditions: DU-145, 48 h, read-out: GI
PC-3 [33] = assay: Cytotoxicity against human PC3 cells at 30 uM after 48 hrs by SRB assay; format: functional; conditions: PC-3, 48 h, read-out: GI
DU-145 [34] = assay: Cytotoxicity against human DU145 cells after 48 hrs by SRB assay; format: functional, cell-based; conditions: DU-145, 48 h
HEp-2 [35] = assay: Cytotoxicity against human Hep2 cells after 48 hrs by SRB assay; format: functional, cell-based; conditions: HEp-2, 48 h
SF-295 [36] = assay: Cytotoxicity against human SF295 cells after 48 hrs by SRB assay; format: functional, cell-based; conditions: SF-295, 48 h

Structure (SMILES) | inhibition of growth at 50 µM (A549 [1]) [%] | inhibition of growth at 30 µM (HEp-2 [2]) [%] | inhibition of growth at 50 µM (SF-295 [3]) [%] | IC50 (MCF7 [4]) [µM] | inhibition of growth at 50 µM (THP-1 [5]) [%] | inhibition of growth at 30 µM (THP-1 [6]) [%] | inhibition of growth at 50 µM (HL-60 [7]) [%] | inhibition of growth at 50 µM (DU-145 [8]) [%] | inhibition of growth at 30 µM (HL-60 [9]) [%] | inhibition of growth at 30 µM (A549 [10]) [%] | IC50 (THP-1 [11]) [µM] | inhibition of growth at 30 µM (HCT-15 [12]) [%] | inhibition of growth at 50 µM (HEp-2 [13]) [%] | IC50 (HCT-15 [14]) [µM] | inhibition of growth at 30 µM (MCF7 [15]) [%] | inhibition of growth at 10 µM (A549 [16]) [%] | inhibition of growth at 10 µM (HL-60 [17]) [%] | inhibition of growth at 10 µM (DU-145 [18]) [%] | inhibition of growth at 10 µM (PC-3 [19]) [%] | inhibition of growth at 10 µM (SF-295 [20]) [%] | also measured
C=C(C)[C@@H]1CC[C@]2(C(=O)O)CC[C@]3(C)[C@H](CC[C@@H]4[C@@]5(C)CC[C@H](OCc6cn(-c7cccc(OC)c7)nn6)C(C)(C)[C@@H]5CC[C@]43C)[C@@H]12 | 45 | 56 | 55 | 12 | 54 | 41 | 60 | 30 | 45 | 38 | 47 | 53 | 57 | 26 | 59 | 34 | 20 | 17 | 4 | 15 | inhibition of growth at 50 µM (MCF7 [21]): 75%; inhibition of growth at 50 µM (HCT-15 [22]): 84%; IC50 (A549 [23]): > 50 µM; inhibition of growth at 10 µM (HCT-15 [24]): 23%; inhibition of growth at 10 µM (HEp-2 [25]): 30%; IC50 (PC-3 [26]): > 50 µM; IC50 (HL-60 [27]): 37 µM; inhibition of growth at 10 µM (THP-1 [28]): 17%; inhibition of growth at 30 µM (SF-295 [29]): 48%; inhibition of growth at 50 µM (PC-3 [30]): 28%; inhibition of growth at 10 µM (MCF7 [31]): 46%; inhibition of growth at 30 µM (DU-145 [32]): 18%; inhibition of growth at 30 µM (PC-3 [33]): 10%; IC50 (DU-145 [34]): > 50 µM; IC50 (HEp-2 [35]): 29 µM; IC50 (SF-295 [36]): 32 µM
C=C(C)[C@@H]1CC[C@]2(C(=O)O)CC[C@]3(C)[C@H](CC[C@@H]4[C@@]5(C)CC[C@H](OCc6cn(-c7cc(OC)c(OC)c(OC)c7)nn6)C(C)(C)[C@@H]5CC[C@]43C)[C@@H]12 | 41 | 38 | 51 | 10 | 58 | 44 | 65 | 11 | 51 | 26 | 39 | 35 | 48 | > 50 | 71 | 25 | 41 | 3 | 8 | 28 | inhibition of growth at 50 µM (MCF7 [21]): 74%; inhibition of growth at 50 µM (HCT-15 [22]): 43%; IC50 (A549 [23]): > 50 µM; inhibition of growth at 10 µM (HCT-15 [24]): 47%; inhibition of growth at 10 µM (HEp-2 [25]): 8%; IC50 (PC-3 [26]): > 50 µM; IC50 (HL-60 [27]): 37 µM; inhibition of growth at 10 µM (THP-1 [28]): 35%; inhibition of growth at 30 µM (SF-295 [29]): 51%; inhibition of growth at 50 µM (PC-3 [30]): 46%; inhibition of growth at 10 µM (MCF7 [31]): 50%; inhibition of growth at 30 µM (DU-145 [32]): 10%; inhibition of growth at 30 µM (PC-3 [33]): 30%; IC50 (DU-145 [34]): > 50 µM; IC50 (HEp-2 [35]): > 50 µM; IC50 (SF-295 [36]): 27 µM
C=C(C)[C@@H]1CC[C@]2(C(=O)O)CC[C@]3(C)[C@H](CC[C@@H]4[C@@]5(C)CC[C@H](OCc6cn(-c7ccc(OC)cc7)nn6)C(C)(C)[C@@H]5CC[C@]43C)[C@@H]12 | 51 | 54 | 59 | 14 | 97 | 77 | 99 | 53 | 82 | 40 | 10 | 55 | 74 | 8 | 62 | 38 | 54 | 35 | 5 | 20 | inhibition of growth at 50 µM (MCF7 [21]): 93%; inhibition of growth at 50 µM (HCT-15 [22]): 57%; IC50 (A549 [23]): 50 µM; inhibition of growth at 10 µM (HCT-15 [24]): 55%; inhibition of growth at 10 µM (HEp-2 [25]): 41%; IC50 (PC-3 [26]): 49 µM; IC50 (HL-60 [27]): 8 µM; inhibition of growth at 10 µM (THP-1 [28]): 50%; inhibition of growth at 30 µM (SF-295 [29]): 46%; inhibition of growth at 50 µM (PC-3 [30]): 52%; inhibition of growth at 10 µM (MCF7 [31]): 44%; inhibition of growth at 30 µM (DU-145 [32]): 37%; inhibition of growth at 30 µM (PC-3 [33]): 8%; IC50 (DU-145 [34]): 48 µM; IC50 (HEp-2 [35]): 23 µM; IC50 (SF-295 [36]): 44 µM
C=C(C)[C@@H]1CC[C@]2(C(=O)O)CC[C@]3(C)[C@H](CC[C@@H]4[C@@]5(C)CC[C@H](OCc6cn(-c7ccc8c(c7)OCO8)nn6)C(C)(C)[C@@H]5CC[C@]43C)[C@@H]12 | 40 | 56 | 65 | 13 | 52 | 46 | 61 | 91 | 50 | 40 | 34 | 36 | 67 | 50 | 68 | 22 | 41 | 10 | 2 | 36 | inhibition of growth at 50 µM (MCF7 [21]): 82%; inhibition of growth at 50 µM (HCT-15 [22]): 50%; IC50 (A549 [23]): > 50 µM; inhibition of growth at 10 µM (HCT-15 [24]): 22%; inhibition of growth at 10 µM (HEp-2 [25]): 9%; IC50 (PC-3 [26]): 43 µM; IC50 (HL-60 [27]): 30 µM; inhibition of growth at 10 µM (THP-1 [28]): 33%; inhibition of growth at 30 µM (SF-295 [29]): 55%; inhibition of growth at 50 µM (PC-3 [30]): 61%; inhibition of growth at 10 µM (MCF7 [31]): 47%; inhibition of growth at 30 µM (DU-145 [32]): 50%; inhibition of growth at 30 µM (PC-3 [33]): 32%; IC50 (DU-145 [34]): 30 µM; IC50 (HEp-2 [35]): 26 µM; IC50 (SF-295 [36]): 18 µM

— ChEMBL document CHEMBL2380302, “Synthesis of 3-O-propargylated betulinic acid and its 1,2,3-triazoles as potential apoptotic agents” (Eur J Med Chem, 2013)
